Measurements taken from patent US20260217701A1, “SELECTIVE BET INHIBITORS AND USES THEREOF” (Tay Therapeutics Limited, priority 2022, published 2026).
Read-outs that look alike come from different tables or passages of the source.

Experiment: Rat PK study #1 (Compound A PO, methylcellulose vs propylene glycol formulation)
Format: in vivo, Lewis rats
Conditions: male, rat, plasma, Lewis rats, PO 10 mg/kg; for concentration at 2 h / concentration at 4 h / concentration at 8 h / concentration at 24 h / AUC(0-t) / Tmax / Cmax / concentration at 0.083 h / concentration at 0.25 h / concentration at 0.5 h / concentration at 1 h: Lewis, po, 10 mg/kg; for Cmax: read-out: Cmax
Description: For the first rat pharmacokinetic study, the pharmacokinetics of Compound A were assessed in male Lewis rats. Compound A was prepared in two different formulations (1% methylcellulose and 20% propylene glycol/20% Vitamin E/60% water) according to Table 3A (see Tables 2A and 2D for formulations). The formulations were made fresh prior to use. Animals were divided into two groups based on the compound formulation (n=3/group). The Compound A solutions were administered to animals orally (PO) and animals were then monitored over a 24 h period.
Blood samples (~0.2 mL) were collected according to a schedule (0.083, 0.25, 0.5, 1, 2, 4, 8, and 24 h following the initial dosing) via the jugular vein by cannulation and EDTA-K2 was used as anticoagulant. Within 30 minutes of collection, the samples were centrifuged at approximately 4000 times g-force for 5 minutes at 4° C. to obtain blood plasma. The plasma samples were immediately divided into two aliquots (~75 μL each), transferred to a cryogenic vial, and stored in a freezer at −75±15° C. prior to analysis.
The concentration of Compound A in plasma samples was determined by liquid chromatography-mass spectrometry (LC-MS/MS) using a Shimadzu HPLC (DGU-20A5R; LC-30AD; SIL-30AC; Rack changer II; CTO-31A; and CBM-20A) and an AB API 5500 LC/MS/MS instrument. Samples were analyzed on an Agilent Poroshell 120 EC-C18 4 μm (50×2.1 mm) column. Solution A in the mobile phase was 95% water (0.1% formic acid) and solution B was 95% acetonitrile in water (0.1% formic acid), injection volume was 3 μL, and flow rate was 0.6 mL/min.
To prepare samples for analysis, serial concentrations were prepared by diluting the stock solution of analyte with a 50% acetonitrile in water solution. 5 μL working solutions (5, 10, 20, 50, 100, 500, 1000, 5000, and 10000 ng/ml) were added to 50 μL of the blank Lewis rat plasma to achieve calibration standards of ~0.5 to 1000 ng/ml (0.5, 1, 2, 5, 10, 50, 100, 500, and 1000 ng/ml) in a total volume of 55 μL. Five quality control samples at 1 ng/ml, 2 ng/ml, 5 ng/mL, 50 ng/mL, and 800 ng/mL for plasma were prepared independently of those used for the calibration curves. These QC samples were prepared on the day of analysis in the same way as calibration standards.
55 μL of standards, 55 μL of QC samples and 55 μL of unknown samples (50 μL of unknown rat plasma with 5 μL of blank solution) were added to 200 μL of acetonitrile containing internal standard (IS; verapamil) mixture for precipitating protein respectively. The samples were then vortexed for 30 s. After centrifugation at 4° C., 3900 rpm for 15 min, the supernatant was diluted 3 times with water. 3 μL of diluted supernatant was injected into the LC/MS/MS system for quantitative analysis.

[1] = 1% methylcellulose formulation, individual animals
[2] = 1% methylcellulose formulation, mean of 3 animals
[3] = propylene glycol/Vitamin E TPGS/water formulation, individual animals
[4] = propylene glycol/Vitamin E TPGS/water formulation, mean of 3 animals

Cn1cc(-c2ccccc2)c(-c2cn(C)c(=O)c3[nH]c(-c4cnn(C(F)(F)F)c4)cc23)cc1=O [Compound A, 6-methyl-4-(1-methyl-2-oxo-5-phenyl-1,2-dihydropyridin-4-yl)-2-(1-(trifluoromethyl)-1H-pyrazol-4-yl)-1,6-dihydro-7H-pyrrolo[2,3-c]pyridin-7-one]
concentration at 2 h [1]: 25.5 ng/mL | concentration at 2 h [2]: 23.3 ng/mL | concentration at 4 h [1]: 41.5 ng/mL | concentration at 4 h [2]: 44.6 ng/mL | concentration at 8 h [2]: 49.1 ng/mL | concentration at 24 h [2]: 2.77 ng/mL | AUC(0-t) [1]: 480 ng·h/mL | Tmax [1]: 4 h | Cmax [1]: 41.5 ng/mL | AUC(0-t) [2]: 694 ng·h/mL | Tmax [2]: 6.67 h | Cmax [2]: 53.1 ng/mL | concentration at 0.083 h [3]: 4.79 ng/mL | concentration at 0.083 h [4]: 4.29 ng/mL | concentration at 0.25 h [3]: 44.5 ng/mL | concentration at 0.25 h [4]: 43.8 ng/mL | concentration at 0.5 h [3]: 125 ng/mL | concentration at 0.5 h [4]: 131 ng/mL | concentration at 1 h [3]: 277 ng/mL | concentration at 1 h [4]: 268 ng/mL | concentration at 2 h [3]: 390 ng/mL | concentration at 2 h [4]: 396 ng/mL | concentration at 4 h [3]: 445 ng/mL | concentration at 4 h [4]: 399 ng/mL | concentration at 8 h [3]: 266 ng/mL | concentration at 8 h [4]: 189 ng/mL | concentration at 24 h [3]: 13.1 ng/mL | concentration at 24 h [4]: 12.7 ng/mL | AUC(0-t) [3]: 4950 ng·h/mL | Tmax [3]: 4 h | Cmax [3]: 445 ng/mL | AUC(0-t) [4]: 4040 ng·h/mL | Tmax [4]: 3.33 h | Cmax [4]: 419 ng/mL | AUC(0-inf) [3]: 3510 ng·h/mL | half-life [3]: 4.33 h | MRT inf (propylene glycol/Vitamin E TPGS/water formulation, individual animals, read-out: MRTInf_obs): 6.39 h
